Experimental data: ChEMBL document CHEMBL1240486, “Novel N-methylated 8-oxoisoguanines from Pacific sponges with diverse neuroactivities” (J Med Chem, 2010)
Active and inactive are the calls of the source. The rule behind the calls is not given here.

Experiments:
Mus musculus [1] = experiment: Neurotoxicity in ddY mouse assessed as changes in behavioral activity at 25 to 50 nmol/mouse, icv measured for 60 mins; format: toxicity, organism-based; settings: in vivo, icv_or_intrathecal, 1 h
Mus musculus [2] = experiment: Neurotoxicity in ddY mouse assessed as changes in behavioral activity at >75 nmol/mouse, icv measured for 60 mins; format: toxicity, organism-based; settings: in vivo, icv_or_intrathecal, 1 h
Mus musculus [3] = experiment: Toxicity in ddY mouse assessed as death at 0.1 umol, icv; format: organism-based; settings: in vivo, icv_or_intrathecal
Mus musculus [4] = experiment: Neurotoxicity in icv dosed ddY mouse assessed as 50% maximal convulsant dose measured for 60 mins; format: toxicity, organism-based; settings: in vivo, icv_or_intrathecal, 1 h
Mus musculus [5] = experiment: Neurotoxicity in ddY mouse assessed as induction of occasional tonic extension of forelimbs and weakness of lower bodies at 0.1 umol, icv measured for 60 mins; settings: in vivo, icv_or_intrathecal, 1 h
Rattus norvegicus [6] = species: Rattus norvegicus; experiment: Inhibition of GABAA receptor-mediated postsynaptic current in rat hippocampal neurons at 10 uM after 5 mins by whole-cell voltage clamp assay; format: tissue-based; settings: Hippocampus
[7] = target: Glutamate NMDA receptor (Rattus norvegicus) (UniProt P35439+Q00959+Q00960+Q00961+Q62645+Q8VHN2+Q9R1M7); experiment: Displacement of [3H]CGP39653 from NMDA receptor in Sprague-Dawley rat synaptic membranes at 10 uM after 1 hr; format: cell membranes; settings: Membrane
[8] = Inhibition of GABAA receptor-mediated miniature inhibitory postsynaptic current in rat hippocampal neurons at 10 uM after 5 mins by whole-cell voltage clamp assay relative to baseline in presence of nonselective adenosine receptor antagonist CGS-15943; format: functional; settings: Hippocampus
Rattus norvegicus [9] = species: Rattus norvegicus; experiment: Displacement of [3H]AMPA from AMPA receptor in Sprague-Dawley rat synaptic membranes at 10 uM after 1 hr; format: cell membranes; settings: Membrane
Rattus norvegicus [10] = species: Rattus norvegicus; experiment: Inhibition of GABAA receptor-mediated postsynaptic current in rat hippocampal neurons at 30 uM after 5 mins by whole-cell voltage clamp assay; format: tissue-based; settings: Hippocampus
Mus musculus [11] = experiment: Neurotoxicity in ddY mouse assessed as changes in behavioral activity at 1 nmol/mouse, icv measured for 60 mins; format: toxicity, organism-based; settings: in vivo, icv_or_intrathecal, 1 h
Mus musculus [12] = species: Mus musculus; experiment: Inhibition of excitatory postsynaptic current in juvenile mouse CA1 neurons at 30 uM by whole-cell voltage clamp assay
[13] = target: T1, Alpha-1A adrenergic receptor (Homo sapiens, UniProt P35348); experiment: Binding affinity to adrenergic alpha1A receptor
T1 sequence (P35348 whole entry): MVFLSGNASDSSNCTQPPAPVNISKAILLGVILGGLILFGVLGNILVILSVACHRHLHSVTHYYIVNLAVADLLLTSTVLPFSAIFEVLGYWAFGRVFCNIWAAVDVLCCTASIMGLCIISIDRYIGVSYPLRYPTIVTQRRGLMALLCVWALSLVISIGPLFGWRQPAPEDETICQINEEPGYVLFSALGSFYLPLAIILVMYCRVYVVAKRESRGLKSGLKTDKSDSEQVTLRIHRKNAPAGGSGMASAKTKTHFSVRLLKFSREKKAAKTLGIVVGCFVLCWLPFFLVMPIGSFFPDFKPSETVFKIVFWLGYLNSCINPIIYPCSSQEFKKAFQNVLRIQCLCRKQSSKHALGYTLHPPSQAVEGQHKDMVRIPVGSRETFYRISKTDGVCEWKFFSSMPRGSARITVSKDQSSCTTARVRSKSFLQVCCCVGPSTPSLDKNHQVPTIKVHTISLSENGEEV

[14] = target: Neuronal acetylcholine receptor; alpha3/beta2 (Homo sapiens, UniProt P17787+P32297); experiment: Binding affinity to nicotinic alpha3beta2 receptor receptor; format: protein-complex assay
Neuronal acetylcholine receptor; alpha3/beta2, sequence (P17787 whole entry): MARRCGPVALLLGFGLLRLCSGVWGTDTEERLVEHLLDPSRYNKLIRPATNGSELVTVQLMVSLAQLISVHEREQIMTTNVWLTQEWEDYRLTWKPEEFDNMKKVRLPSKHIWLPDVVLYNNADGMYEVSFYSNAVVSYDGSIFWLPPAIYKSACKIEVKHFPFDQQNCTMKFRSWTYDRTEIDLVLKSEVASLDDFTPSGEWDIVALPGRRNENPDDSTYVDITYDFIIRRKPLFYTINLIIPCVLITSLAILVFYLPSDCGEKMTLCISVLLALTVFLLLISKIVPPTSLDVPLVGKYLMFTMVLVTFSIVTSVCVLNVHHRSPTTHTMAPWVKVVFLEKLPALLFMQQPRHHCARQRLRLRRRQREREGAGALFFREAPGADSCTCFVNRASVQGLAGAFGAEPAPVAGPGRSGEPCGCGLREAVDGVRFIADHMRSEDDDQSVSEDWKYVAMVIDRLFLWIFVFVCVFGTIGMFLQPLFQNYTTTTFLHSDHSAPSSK
Neuronal acetylcholine receptor; alpha3/beta2, sequence (P32297 whole entry): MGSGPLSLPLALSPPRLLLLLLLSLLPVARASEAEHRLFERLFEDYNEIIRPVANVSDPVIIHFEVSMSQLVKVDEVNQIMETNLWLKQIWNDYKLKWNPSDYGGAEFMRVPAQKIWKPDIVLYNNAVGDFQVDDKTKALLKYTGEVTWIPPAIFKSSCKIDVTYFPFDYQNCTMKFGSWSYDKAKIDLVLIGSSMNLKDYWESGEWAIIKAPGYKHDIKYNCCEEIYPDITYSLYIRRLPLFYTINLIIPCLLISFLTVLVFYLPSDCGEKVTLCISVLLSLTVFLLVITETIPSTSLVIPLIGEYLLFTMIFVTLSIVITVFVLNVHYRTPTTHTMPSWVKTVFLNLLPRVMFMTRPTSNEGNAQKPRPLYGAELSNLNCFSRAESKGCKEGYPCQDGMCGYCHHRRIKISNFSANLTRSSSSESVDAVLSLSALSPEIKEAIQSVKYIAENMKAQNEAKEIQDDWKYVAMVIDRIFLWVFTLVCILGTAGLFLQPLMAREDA

Rattus norvegicus [15] = species: Rattus norvegicus; experiment: Inhibition of GABAA receptor-mediated miniature excitatory postsynaptic current in rat hippocampal neurons assessed as EPSC bursts at 10 uM after 5 mins by whole-cell voltage clamp assay (Rvb 0.69 +/- 0.21 Hz); format: tissue-based; settings: Hippocampus
Mus musculus [16] = species: Mus musculus; experiment: Inhibition of GABAA receptor-mediated inhibitory synaptic currents in juvenile mouse CA1 neurons at 30 uM by whole-cell voltage clamp assay
Rattus norvegicus [17] = species: Rattus norvegicus; experiment: Displacement of [3H]kainate from kainate receptor in Sprague-Dawley rat synaptic membranes at 10 uM after 1 hr; format: cell membranes; settings: Membrane
Rattus norvegicus [18] = species: Rattus norvegicus; experiment: Inhibition of GABAA receptor-mediated miniature inhibitory postsynaptic current in rat hippocampal neurons at 10 uM after 5 mins by whole-cell voltage clamp assay relative to baseline; format: tissue-based; settings: Hippocampus
Rattus norvegicus [19] = species: Rattus norvegicus; experiment: Inhibition of GABAA receptor-mediated inhibitory synaptic currents in rat hippocampal neurons assessed as sEPSC bursts at 10 uM after 5 mins by whole-cell voltage clamp assay (reference value: 5.6 +/- 1.6 Hz); format: tissue-based; settings: Hippocampus
[20] = target: Kappa-type opioid receptor (Homo sapiens, UniProt P41145); experiment: Binding affinity to kappa opioid receptor
Kappa-type opioid receptor, sequence (P41145 whole entry): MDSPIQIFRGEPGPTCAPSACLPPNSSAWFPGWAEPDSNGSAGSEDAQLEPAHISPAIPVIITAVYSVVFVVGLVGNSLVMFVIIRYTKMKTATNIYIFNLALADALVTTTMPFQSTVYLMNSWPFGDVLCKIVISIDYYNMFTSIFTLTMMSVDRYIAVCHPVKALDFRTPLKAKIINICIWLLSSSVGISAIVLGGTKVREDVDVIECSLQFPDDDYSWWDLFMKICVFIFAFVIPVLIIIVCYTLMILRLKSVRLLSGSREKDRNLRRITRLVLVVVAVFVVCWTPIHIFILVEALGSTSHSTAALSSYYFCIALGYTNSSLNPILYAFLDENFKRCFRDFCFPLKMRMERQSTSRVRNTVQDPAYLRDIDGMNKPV

[21] = target: T2, Alpha-1B adrenergic receptor (Homo sapiens, UniProt P35368); experiment: Binding affinity to adrenergic Alpha-1B receptor
T2 sequence (P35368 whole entry): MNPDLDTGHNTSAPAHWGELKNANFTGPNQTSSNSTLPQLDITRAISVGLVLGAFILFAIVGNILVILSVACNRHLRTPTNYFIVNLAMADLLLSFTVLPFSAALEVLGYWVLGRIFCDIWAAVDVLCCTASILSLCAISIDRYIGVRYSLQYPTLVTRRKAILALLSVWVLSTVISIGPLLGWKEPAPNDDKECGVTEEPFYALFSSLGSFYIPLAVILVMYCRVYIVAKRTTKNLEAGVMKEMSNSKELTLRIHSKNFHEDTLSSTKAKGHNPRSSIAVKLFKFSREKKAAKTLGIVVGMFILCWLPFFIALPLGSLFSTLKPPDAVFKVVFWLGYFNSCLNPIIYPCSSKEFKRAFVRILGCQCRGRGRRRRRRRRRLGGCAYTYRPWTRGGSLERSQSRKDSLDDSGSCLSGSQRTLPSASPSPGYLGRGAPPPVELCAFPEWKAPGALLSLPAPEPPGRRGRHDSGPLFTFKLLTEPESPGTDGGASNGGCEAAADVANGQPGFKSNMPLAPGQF

Mus musculus [22] = species: Mus musculus; experiment: Inhibition of GABAA receptor-mediated inhibitory synaptic currents in juvenile mouse CA1 neurons at 30 uM by whole-cell voltage clamp assay in presence of SCH-50911
Rattus norvegicus [23] = species: Rattus norvegicus; experiment: Displacement of [3H]muscimol from GABA binding site of GABAA receptor in rat brain membrane at <10 uM; format: cell membranes
Rattus norvegicus [24] = species: Rattus norvegicus; experiment: Displacement of [3H]flunitrazepam from benzodiazepine binding site of GABAA receptor in rat brain membrane at <10 uM; format: cell membranes
[25] = target: Glutamate receptor 4 (Homo sapiens) (UniProt P48058); experiment: Antagonist activity at recombinant GluA4 receptor expressed in HEK 293-T/17 cells assessed as glutamate-induced current at 100 uM by whole-cell recording relative to control; format: functional, cell-based; set-up: scale not given: the % may be the effect or the level left; settings: HEK293
Glutamate receptor 4 (Homo sapiens), sequence (P48058 whole entry): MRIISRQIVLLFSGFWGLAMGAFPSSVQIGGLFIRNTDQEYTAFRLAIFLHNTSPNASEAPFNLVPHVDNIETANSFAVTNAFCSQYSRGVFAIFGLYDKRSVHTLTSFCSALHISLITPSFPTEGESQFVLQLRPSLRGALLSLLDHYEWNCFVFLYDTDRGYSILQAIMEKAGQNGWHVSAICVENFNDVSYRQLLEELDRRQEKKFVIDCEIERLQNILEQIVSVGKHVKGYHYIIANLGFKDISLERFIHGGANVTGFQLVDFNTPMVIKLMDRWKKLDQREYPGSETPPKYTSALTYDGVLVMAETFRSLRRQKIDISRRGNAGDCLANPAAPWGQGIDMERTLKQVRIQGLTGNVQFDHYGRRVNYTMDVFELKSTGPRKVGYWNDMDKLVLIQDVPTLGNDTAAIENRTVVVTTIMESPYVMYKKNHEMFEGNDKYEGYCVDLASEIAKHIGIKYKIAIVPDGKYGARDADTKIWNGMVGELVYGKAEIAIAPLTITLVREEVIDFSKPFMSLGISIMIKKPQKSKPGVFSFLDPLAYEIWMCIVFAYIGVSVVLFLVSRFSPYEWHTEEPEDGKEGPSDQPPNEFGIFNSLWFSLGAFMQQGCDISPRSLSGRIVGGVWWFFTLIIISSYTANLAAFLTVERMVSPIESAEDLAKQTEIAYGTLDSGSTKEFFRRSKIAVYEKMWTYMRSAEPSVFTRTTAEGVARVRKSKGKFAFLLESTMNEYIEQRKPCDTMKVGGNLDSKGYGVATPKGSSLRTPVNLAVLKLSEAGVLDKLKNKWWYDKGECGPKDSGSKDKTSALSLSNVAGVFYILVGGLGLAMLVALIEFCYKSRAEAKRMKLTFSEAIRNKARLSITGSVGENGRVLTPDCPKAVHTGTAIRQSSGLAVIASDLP

Rattus norvegicus [26] = species: Rattus norvegicus; experiment: Inhibition of GABAA receptor-mediated inhibitory synaptic currents in rat hippocampal neurons assessed as sEPSC bursts at 10 uM measured after compound washout by whole-cell voltage clamp assay; format: tissue-based; settings: Hippocampus
[27] = target: GABA A receptor alpha-4/beta-3/gamma-2 (Homo sapiens) (UniProt P18507+P28472+P48169); experiment: Antagonist activity at recombinant alpha-4-beta-3-gamma-2S receptor expressed in HEK 293-T/17 cells assessed as GABA-induced current at 30 uM by whole-cell recording relative to control; format: functional, cell-based; set-up: scale not given: the % may be the effect or the level left; settings: HEK293
Mu-type opioid receptor = Mu-type opioid receptor (Homo sapiens, UniProt P35372); experiment: Binding affinity to mu opioid receptor
Mu-type opioid receptor, sequence (P35372 whole entry): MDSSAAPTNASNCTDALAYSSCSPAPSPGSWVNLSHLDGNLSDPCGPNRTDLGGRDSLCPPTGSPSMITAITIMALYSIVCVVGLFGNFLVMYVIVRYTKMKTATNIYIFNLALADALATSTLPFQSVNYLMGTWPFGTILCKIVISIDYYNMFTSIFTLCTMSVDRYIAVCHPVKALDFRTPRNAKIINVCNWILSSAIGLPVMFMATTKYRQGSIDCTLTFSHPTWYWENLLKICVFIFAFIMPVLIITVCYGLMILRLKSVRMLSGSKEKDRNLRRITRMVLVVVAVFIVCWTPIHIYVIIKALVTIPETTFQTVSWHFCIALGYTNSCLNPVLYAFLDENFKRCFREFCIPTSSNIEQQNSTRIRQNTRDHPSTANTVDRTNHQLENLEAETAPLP

[28] = target: 5-hydroxytryptamine receptor 1E (Homo sapiens, UniProt P28566); experiment: Binding affinity to 5HT1E receptor
5-hydroxytryptamine receptor 1E, sequence (P28566 whole entry): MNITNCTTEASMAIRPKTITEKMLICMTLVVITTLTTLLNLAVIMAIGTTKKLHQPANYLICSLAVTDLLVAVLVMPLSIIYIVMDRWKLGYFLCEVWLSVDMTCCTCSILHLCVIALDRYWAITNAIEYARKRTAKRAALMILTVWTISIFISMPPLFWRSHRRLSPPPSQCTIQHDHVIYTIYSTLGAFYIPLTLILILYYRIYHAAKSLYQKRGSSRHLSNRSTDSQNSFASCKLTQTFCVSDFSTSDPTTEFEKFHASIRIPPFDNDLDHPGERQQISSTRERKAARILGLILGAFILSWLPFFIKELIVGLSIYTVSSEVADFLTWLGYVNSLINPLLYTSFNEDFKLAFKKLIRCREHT

Rattus norvegicus [29] = species: Rattus norvegicus; experiment: Effect on GABAA receptor-mediated spontaneous excitatory postsynaptic current in rat hippocampal neurons assessed as frequency of sEPSC bursts at 10 uM after 5 mins by whole-cell voltage clamp assay (reference value: 0.84 +/- 0.12 Hz); format: tissue-based; settings: Hippocampus
Mus musculus [30] = species: Mus musculus; experiment: Inhibition of GABAA receptor-mediated inhibitory synaptic currents in juvenile mouse CA1 neurons at 30 uM by whole-cell voltage clamp assay in presence of prazosin
Mus musculus [31] = experiment: Neurotoxicity in ddY mouse assessed as changes in behavioral activity at >4 nmol/mouse, icv measured for 60 mins; format: toxicity, organism-based; settings: in vivo, icv_or_intrathecal, 1 h
[32] = target: T3, Alpha-1D adrenergic receptor (Homo sapiens, UniProt P25100); experiment: Binding affinity to adrenergic Alpha-1D receptor
T3 sequence (P25100 whole entry): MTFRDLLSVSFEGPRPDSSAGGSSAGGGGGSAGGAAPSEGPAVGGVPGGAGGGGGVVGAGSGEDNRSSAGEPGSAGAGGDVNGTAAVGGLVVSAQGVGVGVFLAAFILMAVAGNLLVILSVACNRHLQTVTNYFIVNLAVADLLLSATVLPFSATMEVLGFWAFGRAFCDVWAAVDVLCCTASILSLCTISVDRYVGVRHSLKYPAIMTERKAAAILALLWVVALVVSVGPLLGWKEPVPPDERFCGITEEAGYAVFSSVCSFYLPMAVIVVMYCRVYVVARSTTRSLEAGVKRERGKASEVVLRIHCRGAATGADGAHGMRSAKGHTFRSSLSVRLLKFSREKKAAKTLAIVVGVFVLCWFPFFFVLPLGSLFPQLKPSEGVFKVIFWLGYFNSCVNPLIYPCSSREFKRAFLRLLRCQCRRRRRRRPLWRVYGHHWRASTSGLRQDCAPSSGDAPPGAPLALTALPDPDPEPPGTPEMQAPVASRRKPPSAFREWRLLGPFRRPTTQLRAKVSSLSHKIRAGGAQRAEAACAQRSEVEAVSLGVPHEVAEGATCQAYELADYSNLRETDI

Mus musculus [33] = experiment: Neurotoxicity in ddY mouse assessed as changes in behavioral activity at 30 to 110 nmol/mouse, icv measured for 60 mins; format: toxicity, organism-based; settings: in vivo, icv_or_intrathecal, 1 h
Mus musculus [34] = experiment: Neurotoxicity in ddY mouse assessed as induction of convulsions at 0.05 to 0.1 umol, icv measured for 60 mins; format: toxicity, organism-based; settings: in vivo, icv_or_intrathecal, 1 h
Mus musculus [35] = experiment: Neurotoxicity in ddY mouse assessed as changes in behavioral activity at 14 nmol/mouse, icv measured for 60 mins; format: toxicity, organism-based; settings: in vivo, icv_or_intrathecal, 1 h
Mus musculus [36] = experiment: Neurotoxicity in ddY mouse assessed as changes in behavioral activity at 100 nmol/mouse, icv measured for 60 mins; format: toxicity, organism-based; settings: in vivo, icv_or_intrathecal, 1 h

## Cl.Cn1c(=N)c2[nH]c(=O)[nH]c2n(C)c1=O
Mus musculus [1]
  Activity: Toxic
Mus musculus [2]
  Activity: Toxic
Mus musculus [3]
  Activity: Toxic
Mus musculus [4]
  Activity: 54 nmol
Mus musculus [5]
  Activity: Toxic

## Cl.Cn1c(=O)[nH]c2c([nH]c(=O)n2C)c1=N
Rattus norvegicus [6]
  inhibition: Active
[7]
  inhibition: inactive
[8]
  inhibition at 10 µM: 29.6%
Rattus norvegicus [9]
  inhibition: inactive
Rattus norvegicus [10]
  inhibition: Active
Mus musculus [11]
  Activity: Toxic
Mus musculus [12]
  inhibition: 22%
[13]
  Ki: 885 nM
[14]
  Ki: 4200 nM
Rattus norvegicus [15]
  Activity: 0.95 Hz
Mus musculus [16]
  inhibition: 71%
Rattus norvegicus [17]
  inhibition: inactive
Rattus norvegicus [18]
  inhibition: 32%
Rattus norvegicus [19]
  Activity: 3.6 Hz
[20]
  Ki: 1800 nM
[21]
  Ki: 758 nM
Mus musculus [22]
  inhibition: Active
Rattus norvegicus [23]
  inhibition: inactive
Rattus norvegicus [24]
  inhibition: inactive
[25]
  Activity: 100%
Rattus norvegicus [26]
  Activity: 6 Hz
[27]
  Activity: 93%
Mu-type opioid receptor
  Ki: 8900 nM
[28]
  Ki: 2900 nM
Rattus norvegicus [29]
  Activity: 0.9 Hz
Mus musculus [30]
  inhibition: Active
Mus musculus [31]
  Activity: Toxic
Mus musculus [4]
  Activity: 2.4 nmol
[32]
  Ki: 497 nM

## Cl.Cn1c(=O)[nH]c2c(=N)[nH]c(=O)[nH]c21
Mus musculus [33]
  Activity: Toxic
Mus musculus [34]
  Activity: Toxic
Mus musculus [35]
  Activity: Toxic
Mus musculus [4]
  Activity: 18 nmol

## Cl.Cn1c(=O)[nH]c(=N)c2[nH]c(=O)n(C)c21
Mus musculus [36]
  Activity: Toxic
